Experimental data: patent publication US11767320B2, “Bicyclic dione compounds as inhibitors of KRAS” (INCYTE CORPORATION, priority 2020, dated 2023)
pIC50: −log10 of the molar value.

Assays:
KRAS G12C = KRAS G12C (Homo sapiens, UniProt P01116, G12C); test: GDP-GTP exchange assay (fluorescence based guanine nucleotide exchange, bodipy-GDP for GppNHp, SOS1); format: biochemical; conditions: bodipy-loaded KRAS G12C, 2 hours pre-incubation with inhibitor, read-out: G12C_exchange (KRAS_G12C exchange assay IC50)
Description: The inhibitor potency of the exemplified compounds was determined in a fluorescence based guanine nucleotide exchange assay, which measures the exchange of bodipy-GDP (fluorescently labeled GDP) for GppNHp (Non-hydrolyzable GTP analog) to generate the active state of KRAS in the presence of SOS1 (guanine nucleotide exchange factor). Inhibitors were serially diluted in DMSO and a volume of 0.1 μL was transferred to the wells of a black low volume 384-well plate. 5 μL/well volume of bodipy-loaded KRAS G12C diluted to 5 nM in assay buffer (25 mM Hepes pH 7.5, 50 mM NaCl, 10 mM MgCl2 and 0.01% Brij-35) was added to the plate and pre-incubated with inhibitor for 2 hours at ambient temperature. Appropriate controls (enzyme with no inhibitor or with a G12C inhibitor (AMG-510)) were included on the plate. The exchange was initiated by the addition of a 5 μL/well volume containing 1 mM GppNHp and 300 nM SOS1 in assay buffer. The 10 μL/well reaction concentration of the bodipy-loaded KRAS G12C, GppNHp, and SOS1 were 5-25 nM, 500 uM, and 150 nM, respectively. The reaction plates were incubated at ambient temperature for 2 hours, a time estimated for complete GDP-GTP exchange in the absence of inhibitor. For the KRAS G12D and G12V mutants, similar guanine nucleotide exchange assays were used with 2.5 nM as final concentration for the bodipy loaded KRAS proteins and with 4 hours and 3 hours incubation after adding GppNHp-SOS1 mixture for G12D and G12V, respectively. A cyclic peptide described to selectively bind G12D mutant (Sakamoto et al., BBRC 484.3 (2017), 605-611) or internal compounds with confirmed binding were used as positive controls in the assay plates. Fluorescence intensities were measured on a PheraStar plate reader instrument (BMG Labtech) with excitation at 485 nm and emission at 520 nm.
Either GraphPad prism or XLfit was used to analyze the data. The IC50 values were derived by fitting the data to a four parameter logistic equation producing a sigmoidal dose-response curve with a variable Hill coefficient. Prism equation: Y=Bottom+(Top−Bottom)/(1+10^((Log IC50−X)*Hill slope)); XLfit equation: Y=(A+((B−A)/(1+((X/C)^D)))) where X is the logarithm of inhibitor concentration and Y is the response.

[1] = system: MIA PaCa-2 (KRAS G12C) cells; test: Cellular pERK HTRF assay; format: cell-based; conditions: Homo sapiens; MIA PaCa-2 cells, 4 hours, phospho-ERK 1/2 HTRF; read-out: G12C_pERK (KRAS_G12C pERK assay IC50)
Description: MIA PaCa-2 (KRAS G12C; ATCC® CRL-1420), A427 (KRAS G12D; ATCC® HTB53), HPAF-II (KRAS G12D; ATCC® CRL-1997) and NCI-H838 (KRAS WT; ATCC® CRL-5844) cells are purchased from ATCC and maintained in RPMI 1640 media supplemented with 10% FBS (Gibco/Life Technologies). The cells are plated at 5000 cells per well (8 uL) into Greiner 384-well low volume, flat-bottom, tissue culture treated white plates and incubated overnight at 37° C. 5% CO2. The next morning, test compound stock solutions are diluted in media at 3× the final concentration, and 4 uL are added to the cells. The plate is mixed by gentle rotation for 30 seconds (250 rpm) at room temperature. The cells are incubated with the KRAS G12C and G12D compounds for 4 hours or 2 hours respectively at 37° C., 5% CO2.
4 uL of 4× lysis buffer with blocking reagent (1:25) (Cisbio) are added to each well and plates are rotated gently (300 rpm) for 30 minutes at room temperature. 4 uL per well of Cisbio anti Phospho-ERK 1/2 d2 is mixed with anti Phospho-ERK 1/2 Cryptate (1:1) are added to each well, mixed by rotation and incubated overnight in the dark at room temperature. Plates are read on the Pherastar plate reader at 665 nm and 620 nm wavelengths. IC50 determination is performed by fitting the curve of inhibitor percent inhibition versus the log of the inhibitor concentration using the GraphPad Prism 7 software.

Sequence of KRAS G12C (P01116 1-188 isoform P01116-2 G12C): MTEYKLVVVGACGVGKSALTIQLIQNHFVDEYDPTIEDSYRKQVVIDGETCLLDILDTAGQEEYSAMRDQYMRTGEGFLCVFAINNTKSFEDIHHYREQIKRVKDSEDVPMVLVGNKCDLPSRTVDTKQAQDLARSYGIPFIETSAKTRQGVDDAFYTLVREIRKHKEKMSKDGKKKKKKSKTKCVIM

Structure (SMILES)	pIC50 (KRAS G12C)	pIC50 [1]
C=CC(=O)N1CC(F)(Cn2c(=O)c(=O)n(-c3c(C)ccnc3C(C)C)c3nc(-c4cccc5c(C)n[nH]c45)c(Cl)cc32)C1 [Example 27, 1-((1-acryloyl-3-fluoroazetidin-3-yl)methyl)-7-chloro-4-(2-isopropyl-4-methylpyridin-3-yl)-6-(3-methyl-1H-indazol-7-yl)-1,4-dihydropyrido[2,3-b]pyrazine-2,3-dione]	6.00 to 7.00	6.00 to 7.00
C=CC(=O)N1CC(F)(Cn2c(=O)c(=O)n(-c3c(C)ccnc3C(C)C)c3nc(-c4ccccc4C(F)(F)F)c(Cl)cc32)C1 [Example 37, 1-((1-acryloyl-3-fluoroazetidin-3-yl)methyl)-7-chloro-4-(2-isopropyl-4-methylpyridin-3-yl)-6-(2-(trifluoromethyl)phenyl)-1,4-dihydropyrido[2,3-b]pyrazine-2,3-dione]	≥ 7.00	6.00 to 7.00
C=CC(=O)N1CC(Cn2c(=O)c(=O)n(-c3c(C)ccnc3C(C)C)c3nc(-c4c(O)cccc4F)c(Cl)cc32)(OC)C1 [Example 38, 1-((1-acryloyl-3-methoxyazetidin-3-yl)methyl)-7-chloro-6-(2-fluoro-6-hydroxyphenyl)-4-(2-isopropyl-4-methylpyridin-3-yl)-1,4-dihydropyrido[2,3-b]pyrazine-2,3-dione]	6.00 to 7.00	6.00 to 7.00
C=CC(=O)N1CC(Cn2c(=O)c(=O)n(-c3c(C)ccnc3C(C)C)c3nc(-c4c(O)ccc(F)c4F)c(Cl)cc32)(OC)C1 [Example 39, 1-((1-acryloyl-3-methoxyazetidin-3-yl)methyl)-7-chloro-6-(2,3-difluoro-6-hydroxyphenyl)-4-(2-isopropyl-4-methylpyridin-3-yl)-1,4-dihydropyrido[2,3-b]pyrazine-2,3-dione]	6.00 to 7.00	6.00 to 7.00
C=CC(=O)N1CC(Cn2c(=O)c(=O)n(-c3c(C)ccnc3C(C)C)c3nc(-c4c(N)cccc4F)c(Cl)cc32)(OC)C1 [Example 40, 1-((1-acryloyl-3-methoxyazetidin-3-yl)methyl)-6-(2-amino-6-fluorophenyl)-7-chloro-4-(2-isopropyl-4-methylpyridin-3-yl)-1,4-dihydropyrido[2,3-b]pyrazine-2,3-dione]	6.00 to 7.00	6.00 to 7.00
C=CC(=O)N1CC(O)(Cn2c(=O)c(=O)n(-c3c(C)ccnc3C(C)C)c3nc(-c4c(O)cccc4F)c(Cl)cc32)C1 [Example 42, 1-((1-acryloyl-3-hydroxyazetidin-3-yl)methyl)-7-chloro-6-(2-fluoro-6-hydroxyphenyl)-4-(2-isopropyl-4-methylpyridin-3-yl)-1,4-dihydropyrido[2,3-b]pyrazine-2,3-dione]	≥ 7.00	6.00 to 7.00
C=CC(=O)N1CC(O)(Cn2c(=O)c(=O)n(-c3c(C)ccnc3C(C)C)c3nc(-c4c(O)ccc(F)c4F)c(Cl)cc32)C1 [Example 45, 1-((1-acryloyl-3-hydroxyazetidin-3-yl)methyl)-7-chloro-6-(5,6-difluoro-2-hydroxyphenyl)-4-(2-isopropyl-4-methylpyridin-3-yl)-1,4-dihydropyrido[2,3-b]pyrazine-2,3-dione]	≥ 7.00	5.30 to 6.00
[2H]C([2H])(n1c(=O)c(=O)n(-c2c(C)ccnc2C(C)C)c2nc(-c3c(F)ccc(C)c3O)c(Cl)cc21)C1(F)CN(C(=O)C=C)C1 [Example 47, 1-((1-acryloyl-3-fluoroazetidin-3-yl)methyl-d2)-7-chloro-6-(6-fluoro-2-hydroxy-3-methylphenyl)-4-(2-isopropyl-4-methylpyridin-3-yl)-1,4-dihydropyrido[2,3-b]pyrazine-2,3-dione]	≥ 7.00	≥ 7.00

The next lines start with the values.

pIC50 (KRAS G12C)	pIC50 [1]	Structure (SMILES)
≥ 7.00	≥ 7.00	C=CC(=O)N1CC(F)(Cn2c(=O)c(=O)n(-c3c(C)ccnc3C(C)C)c3nc(-c4c(O)ccc(F)c4F)c(Cl)cc32)C1 [Example 23, 1-((1-acryloyl-3-fluoroazetidin-3-yl)methyl)-7-chloro-6-(2,3-difluoro-6-hydroxyphenyl)-4-(2-isopropyl-4-methylpyridin-3-yl)-1,4-dihydropyrido[2,3-b]pyrazine-2,3-dione]
≥ 7.00	≥ 7.00	C=CC(=O)N1CC(F)(Cn2c(=O)c(=O)n(-c3c(C)ccnc3C(C)C)c3nc(-c4c(F)ccc(Cl)c4O)c(Cl)cc32)C1 [Example 24, 1-((1-acryloyl-3-fluoroazetidin-3-yl)methyl)-7-chloro-6-(3-chloro-6-fluoro-2-hydroxyphenyl)-4-(2-isopropyl-4-methylpyridin-3-yl)-1,4-dihydropyrido[2,3-b]pyrazine-2,3-dione]
≥ 7.00	≥ 7.00	C=CC(=O)N1CC(F)(Cn2c(=O)c(=O)n(-c3c(C)ccnc3C(C)C)c3nc(-c4c(O)cccc4C(F)(F)F)c(Cl)cc32)C1 [Example 25, 1-((1-acryloyl-3-fluoroazetidin-3-yl)methyl)-7-chloro-6-(2-hydroxy-6-(trifluoromethyl)phenyl)-4-(2-isopropyl-4-methylpyridin-3-yl)-1,4-dihydropyrido[2,3-b]pyrazine-2,3-dione]
≥ 7.00	≥ 7.00	C=CC(=O)N1CC(F)(Cn2c(=O)c(=O)n(-c3c(C)ccnc3C(C)C)c3nc(-c4c(C)ccc5cn[nH]c45)c(Cl)cc32)C1 [Example 28, 1-((1-acryloyl-3-fluoroazetidin-3-yl)methyl)-7-chloro-4-(2-isopropyl-4-methylpyridin-3-yl)-6-(6-methyl-1H-indazol-7-yl)-1,4-dihydropyrido[2,3-b]pyrazine-2,3-dione]
≥ 7.00	≥ 7.00	C=CC(=O)N1CC(F)(Cn2c(=O)c(=O)n(-c3c(C)ccnc3C(C)C)c3nc(-c4ccc(C)cc4F)c(Cl)cc32)C1 [Example 33, 1-((1-acryloyl-3-fluoroazetidin-3-yl)methyl)-7-chloro-6-(2-fluoro-4-methylphenyl)-4-(2-isopropyl-4-methylpyridin-3-yl)-1,4-dihydropyrido[2,3-b]pyrazine-2,3-dione]
≥ 7.00	≥ 7.00	C=CC(=O)N1CC(F)(Cn2c(=O)c(=O)n(-c3c(C)ccnc3C(C)C)c3nc(-c4cccc(C)c4F)c(Cl)cc32)C1 [Example 34, 1-((1-acryloyl-3-fluoroazetidin-3-yl)methyl)-7-chloro-6-(2-fluoro-3-methylphenyl)-4-(2-isopropyl-4-methylpyridin-3-yl)-1,4-dihydropyrido[2,3-b]pyrazine-2,3-dione]
≥ 7.00	≥ 7.00	C=CC(=O)N1CC(F)(Cn2c(=O)c(=O)n(-c3c(C)ccnc3C(C)C)c3nc(-c4cccc(Cl)c4Cl)c(Cl)cc32)C1 [Example 35, 1-((1-acryloyl-3-fluoroazetidin-3-yl)methyl)-7-chloro-6-(2,3-dichlorophenyl)-4-(2-isopropyl-4-methylpyridin-3-yl)-1,4-dihydropyrido[2,3-b]pyrazine-2,3-dione]
≥ 7.00	≥ 7.00	C=CC(=O)N1CC(F)(Cn2c(=O)c(=O)n(-c3c(C)ccnc3C(C)C)c3nc(-c4ccccc4Cl)c(Cl)cc32)C1 [Example 36, 1-((1-acryloyl-3-fluoroazetidin-3-yl)methyl)-7-chloro-6-(2-chlorophenyl)-4-(2-isopropyl-4-methylpyridin-3-yl)-1,4-dihydropyrido[2,3-b]pyrazine-2,3-dione]
